Target: T1, NR2F6 (ligand binding domain, amino acids 163-404) (Homo sapiens, UniProt P10588)
T1 construct: HIS (N, cleaved yes); FLAG (N, cleaved yes); TEV site (N, cleaved yes); made in house; host or cells: E. coli BL21 (DE3)
T1 sequence (P10588 163-404): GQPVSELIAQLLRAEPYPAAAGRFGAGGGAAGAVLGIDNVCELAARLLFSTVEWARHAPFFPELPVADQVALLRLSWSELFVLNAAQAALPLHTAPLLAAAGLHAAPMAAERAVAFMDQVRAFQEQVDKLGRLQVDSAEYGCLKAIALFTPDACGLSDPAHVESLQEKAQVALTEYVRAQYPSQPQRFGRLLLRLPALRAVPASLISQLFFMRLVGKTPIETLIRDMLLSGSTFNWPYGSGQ
Assay: Thermoshift analysis (TSA) of compound binding to NR2F6
Settings: Table 1.1, 100 μM compound; for Tm: 0.5 mg/ml NR2F6, 1% DMSO, NR2F6 alone Tm 48 °C; for delta Tm: shift versus NR2F6 alone (Tm 48 °C)
Procedure: The binding interaction between target protein NR2F6 and 139 compounds selected from an in silico screen was assessed using thermoshift analysis (TSA). Thermoshift is a physical technique used to determine the melting temperature of a protein. The interaction of the ligand to the folded state of the protein shifts the melting temperature. In the experimental system used, the NR2F6 protein is mixed with the ligand and the fluorescent dye SYPRO Orange®. The fluorescence is monitored over temperature gradient between 20 and 95° C. with 0.5° C. increment. The dye binds to the hydrophobic regions of molten globules and denatured proteins resulting in an increase of fluorescence. A plot of the fluorescence is obtained and used to determine the melting temperature in absence and presence of ligand.
The ligand binding domain of NR2F6 (amino acids 163-404) was cloned for soluble expression in E. coli with an N-terminal HIS-FLAG-TEV-tag. Expression was performed in BL21 (DE3) cells. In brief, a 12L E. coli culture was induced with IPTG in logarithmic phase and further incubated over night at 18° C. Cells were harvested via centrifugation, washed with buffer and stored at […] until purification.
The purification procedure performed consists of HIS affinity chromatography, tag cleavage, negative affinity chromatography, size exclusion chromatography and ion exchange chromatography.
Thermoshift analysis was performed on 139 Compounds that were stored as powder in DMSO stocks. A reaction volume of 25 μl was used, with reaction temperatures being increased in 0.5 increments from 20-95° C. in 96 well, PCR plates (Hard-Shell®, HSP-9655). The control was NR2F6 protein alone in 1% DMSO. For performing the reaction, a reaction buffer comprising of the following was utilized: 20 mM HEPES pH 6.85, 150 mM NaCl, 10% Glycerin and 0.5 mM TCEP.
The following pipetting sequence was used: 1) Add appropriate volume of target enzyme in reaction buffer; 2) Add appropriate volume of dye SYPRO Orange® in reaction buffer; 3) Add inhibitor in 100% DMSO (1% final DMSO conc); 4) Measure fluorescence
Fluorescence was quantified using a CFX Connect™ Real-Time PCR Detection System (BioRad)
An increase in melting temperature is indicative for compound binding.

Row | Tm [°C] | delta Tm [°C] | Structure (SMILES)
1 | 48 | 0 | CCN=c1scc(-c2ccc3c(c2)NC(=O)CO3)n1N=C1CCCC1 [Cpd 137]
2 | 46 | −2 | COc1ccc(/C=N/OCC(=O)NC(c2ccccc2)c2ccccc2)cc1OC [Cpd 138]
3 | 48.5 | 0.5 | CC(=O)c1c(C)[nH]c(C(=O)OCC(=O)Nc2ccc(Cl)cc2[N+](=O)[O-])c1C [Cpd 139]

Reference: patent US11241427B2, “Small molecule modulators of NR2F6 activity” (Regen Biopharma, Inc., priority 2015, dated 2022)
